Drawing on patent US9499493B2, “2,4-pyrimidinediamine compounds and their uses” (Rigel Pharmaceuticals, Inc., priority 2002, dated 2016), this text covers IC50 for 38 compounds.

The test system of test [1] is cultured human mast cells (CHMC). Kind of test: CHMC low cell density ionomycin activation: tryptase assay. Format: cell-based.
Test [2] has the same test system. Nature of the test: CHMC low cell density IgE activation: tryptase assay. It is filed as cell-based. To be noted: anti-IgE. The method, boiled down:
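Cells pelleted, taken up in warm MT, plated at 1000-1500/well, held 1 hr 37° C. Anti-IgE added, 30 min 37° C. Plates spun; supernatant mixed with tryptase substrate, 30 min RT.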

The IC50 is the concentration that gives 50% inhibition. Low values mean greater potency, high ones weaker potency. As to “5-Cyano-N2-(3,4-ethylenedioxyphenyl)-N4-(methoxycarbonylbenzyl)-2,4-pyrimidinediamine [R925820]”, the IC50 in test [1] and in test [2] was more than 10 µM each time. On to “5-Cyano-N2-(3-hydroxyphenyl)-N4-(methoxycarbonylbenzyl)-2,4-pyrimidinediamine [R925821]”, for which the IC50 in test [1] and in test [2] was more than 10 µM each time. With “5-Fluoro N4-(3-hydroxyphenyl)-N2-(5-methyl-4-oxazolyl-2-phenyl)-2,4-pyrimidinediamine [R926779]”, the IC50 in test [1] and in test [2] was more than 10 µM in each case. In the case of `CC1Sc2ccc(Nc3ncc(F)c(Nc4cccc(O)c4)n3)cc2NC1=O` (racemic) [R909263, (+/−)-5-Fluoro-N4-(3-hydroxyphenyl]-N2-(2-methyl-1,4-benzothiazin-3-on-6-yl)pyrimidinediamine], the IC50 was more than 10 µM in test [1] and 0.289 µM in test [2]. For `COC(=O)C(C)Oc1ccc(Nc2ccnc(Nc3ccc(OC(C)C(=O)OC)cc3)n2)cc1` (racemic) [R926257, (±)-N2,N4-Bis[4-methoxycarbonyhalpha-methypmethyleneoxyphenyl]-2,4-pyrimidinediamine], in that order: 7.5 µM and 1.5 µM. For `CCOC(=O)C(C)Oc1ccc(Nc2ncc(C)c(Nc3ccc(OC(C)C(=O)OCC)cc3)n2)cc1` (racemic) [R926259, (±)-N2,N4-Bis[4-ethoxycarbonyl(alpha-methyl)methyleneoxyphenyl]-5-methyl-2,4-pyrimidinediamine], in that order: 6.2 µM and 2.5 µM. Consider `COC(=O)C1Cc2cc(Nc3ncc(F)c(Nc4cccc(C(F)(F)F)c4)n3)ccc2O1` (racemic) [R927028, (±)-N2-(2,3-Dihydro-2-methoxycarbonylbenzofuran-5-yl)-5-fluoro-N4-(3-trifluorophenyl)-2,4-pyrimidinediamine], for which the results for the IC50 in test [1] and in test [2] were more than 10 µM and 0.208 µM, respectively. `CNC(=O)C1Cc2cc(Nc3ncc(F)c(Nc4ccc(OCCO)nc4)n3)ccc2O1` (racemic) [R927039, (±)-N2-[2,3-Dihydro-(N-methylamino)carbonylbenzofuran-5-yl]-5-fluoro-N4-[2-(2-hydroxyethyleneoxy)pyridin-5-yl]-2,4-pyrimidinediamine]: the IC50 in test [1] was more than 10 µM; in test [2], 1.23 µM. The corresponding values for `CNC(=O)C1Cc2cc(Nc3ncc(F)c(Nc4ccc5c(c4)OC(F)(F)O5)n3)ccc2O1` (racemic) [R927041, (±)-N2-[2,3-Dihydro-(N-methylamino)carbonylbenzofuran-5-yl]-N4-(3,4-difluoromethyleneoxyphenyl)-5-fluoro-2,4-pyrimidinediamine] are more than 10 µM and 0.788 µM.

As to `Nc1cccc(Nc2nc(Nc3cccc(NC(=O)CCC(C(=O)O)N4C(=O)c5ccccc5C4=O)c3)ncc2F)c1` (racemic) [R950251, (±)-N4-(3-Aminophenyl)-5-fluoro-N2-(3-(3-carboxy-3-D,L-N-phtaloylamino)propylenecarbonylaminophenyl)-2,4-pyrimidinediamine], the IC50 in test [1] and in test [2] was more than 10 µM each time.

Consider `Nc1cccc(Nc2nc(Nc3cccc(NC(=O)CCC(N)C(=O)O)c3)ncc2F)c1` (racemic) [R950255, (±)-N4-(3-Aminophenyl)-5-fluoro-N2-[3-(3-carboxy-3-amino)propylenecarbonylaminophenyl]-2,4-pyrimidinediamine], for which the IC50 was more than 10 µM in test [1] and 10 µM in test [2]. As for `Fc1cnc(Cl)nc1Nc1cccc(-c2nnn[nH]2)c1` [Compound R926853], the IC50 in test [1] and in test [2] was more than 10 µM throughout.

For the compound `COC(=O)c1cc(Nc2nc(Cl)ncc2F)cc(C(F)(F)F)c1` [Compound R926861], the IC50 in test [1] and in test [2] was more than 10 µM each time. Consider `Fc1cnc(Cl)nc1Nc1ccc2c(c1)CN(c1nc(Cl)ncc1F)CC2` [Compound R926910], for which the IC50 in test [1] and in test [2] was more than 10 µM in each case. On to `CC(C)(C)OC(=O)N1CCc2ccc(Nc3nc(Cl)ncc3F)cc2C1` [Compound R926911], for which the IC50 in test [1] and in test [2] was more than 10 µM throughout. Take `Fc1cnc(Cl)nc1Nc1ccc2c(c1)CNCC2` [Compound R926912]: the IC50 in test [1] and in test [2] was more than 10 µM in each case. As to `Cc1ccc(Nc2nc(Cl)ncc2F)cc1C(F)(F)F` [Compound R926920], the IC50 in test [1] and in test [2] was more than 10 µM in each case. Consider `CC1(C)Oc2ccc(Nc3nc(Cl)ncc3F)cc2NC1=O` [Compound R940322], for which the IC50 in test [1] and in test [2] was more than 10 µM in each case.

Consider `O=C1COc2ccc(Nc3nc(Cl)ncc3F)nc2N1` [Compound R945298], for which the IC50 in test [1] and in test [2] was more than 10 µM each time. Consider `O=C1COc2cc(Nc3nc(Nc4cccc(O)c4)ncc3F)ccc2N1` [R908698], for which the IC50 in test [1] was more than 10 µM; in test [2], 1.67 µM. The corresponding values for `CNC(=O)COc1cccc(Nc2ncc(F)c(Nc3ccc4c(c3)OCC(=O)N4)n2)c1` [R908700, N4-(1,4-Benzoxazine-3-on-7-yl)-5-fluoro-N2-((N-methylacetamido-2)-3-phenoxy)-2,4-pyrimidinediamine] are more than 10 µM and 1.27 µM. `CNC(=O)COc1cccc(Nc2ncc(F)c(Nc3ccc4c(c3)NC(=O)CO4)n2)c1` [R908701]: the IC50 in test [1] amounted to 7.64 µM; in test [2] it was 0.099 µM. As for `CNC(=O)COc1cccc(Nc2ncc(F)c(Nc3ccc4c(c3)OCCN4C)n2)c1` [R908705, 5-Fluoro-N2-[(N-methylacetamido-2)-3-phenoxy]-N4-(N-methyl-1,4-benzoxazin-7-yl)-2,4-pyrimidinediamine], the IC50 in test [1] was more than 10 µM; in test [2], 0.801 µM. Take `CN(C)CCOc1ccc(Nc2ncc(F)c(Nc3cccc(O)c3)n2)cc1` [R909236, N2-[4-(2-N,N-Dimethylamino)ethoxyphenyl]-5-fluoro-N4-(3-hydroxyphenyl)-2,4-pyrimidinediamine]: the IC50 is more than 10 µM in test [1] and 0.996 µM in test [2]. The corresponding values for `Fc1cnc(Nc2ccc3c(c2)CCO3)nc1Nc1ccc2c(c1)CCO2` [R909237, N2,N4-Bis(dihydrobenzofuran-5-yl)-5-fluoro-2,4-pyrimidinediaminediamine] are more than 10 µM and more than 10 µM. As to `O=C(COc1ccc(Nc2ncc(F)c(Nc3ccc4c(c3)OCCO4)n2)cc1)NCCO` [R909239, N4-(3,4-Ethylendioxyphenyl)-5-fluoro-N2-[4-(N-2-hydroxyethylamino)carbonylmethyleneoxyphenyl]-2,4-pyrimidinediamine], the IC50 was more than 10 µM in test [1] and 0.264 µM in test [2]. As for `COC(=O)COc1ccc(Nc2ncc(F)c(Nc3cccc(C#N)c3)n2)cc1` [R945110, N4-(3-Cyanophenyl)-5-fluoro-N2-(4-methoxycarbonylmethyleneoxyphenyl)-2,4-pyrimidinediamine], the IC50 in test [1] is more than 10 µM. As to `OCCNc1cccc(Nc2ncc(F)c(Nc3cccc(NCCO)c3)n2)c1` [R950181, N2,N4-Bis(3-hydroxyethyleneaminophenyl)-5-fluoro-2,4-pyrimidinediamine], the IC50 in test [1] is more than 10 µM. `O=C(CNc1cccc(Nc2ncc(F)c(Nc3ccc4c(c3)OCCO4)n2)c1)NCCO` [R950195, N4-(3,4-Ethylenedioxyphenyl)-5-fluoro-N2-[3-(N-2-hydroxyethyleneamino)carbonylmethyleneaminophenyl]-5-fluoro-2,4-pyrimidinediamine]: in test [1], the IC50 is more than 10 µM. Same read-out and setting: as for `CSc1nc2ccc(Nc3ncc(F)c(Nc4cccc(O)c4)n3)cc2s1` [R950212, 5-Fluoro-N4-(3-hydroxyphenyl)-N2-[2-(methylthio)-1,3-benzothiaz-6-yl)-2,4-pyrimidinediamine], the figure is more than 10 µM.

Compound `CNC(=O)CNc1cccc(Nc2ncc(F)c(Nc3cccc(O)c3)n2)c1` [R950218] displayed an IC50 in test [1] (Homo sapiens, Mast cell) of more than 10 µM. In test [1], `CNC(=O)COc1cccc(Nc2ncc(F)c(Nc3cccc([N+](=O)[O-])c3)n2)c1` [R950261, N4-(3-Nitrophenyl)-5-fluoro-N2-[3-(N-methylamino)carbonylmethyleneoxyphenyl]-2,4-pyrimidinediamine] yielded a half-maximal inhibitory concentration (IC50) of more than 10 µM. Take `CNC(=O)COc1cccc(Nc2ncc(F)c(Nc3cccc(NCCO)c3)n2)c1` [R950265, N4-(3-N-Hydroxyethylaminophenyl)-5-fluoro-N2-[3-(N-methylamino)carbonylmethyleneoxyphenyl]-2,4-pyrimidinediamine]: in test [1], the IC50 is more than 10 µM. Same read-out and setting: as for `CNC(=O)COc1cccc(Nc2ncc(F)c(Nc3cccc(N(CCO)CCO)c3)n2)c1` [R950266, N4-(3-Bis(N-hydroxyethyl)aminophenyl)-5-fluoro-N2-[3-(N-methylamino)carbonylmethyleneoxyphenyl]-2,4-pyrimidinediamine], the figure is more than 10 µM; as for `CNC(=O)COc1cccc(Nc2ncc(F)c(Nc3ccc4c(c3)C(N)CCO4)n2)c1` (stereo not shown) [R950368, N4-(4-Amino-3,4-dihydro-2H-1-benzopyran-6-yl)-5-fluoro-N2-[3-(N-methylamino)carbonylmethyleneoxyphenyl]-2,4-pyrimidinediamine], more than 10 µM; as for `CNC(=O)COc1cccc(Nc2ncc(F)c(Nc3ccc4c(c3)C(N=[N+]=[N-])CCO4)n2)c1` (stereo not shown) [R950383, N4-(4-Azido-3,4-dihydro-2H-1-benzopyran-6-yl)-5-fluoro-N2-[3-(N-methylamino)carbonylmethyleneoxyphenyl]-2,4-pyrimidinediamine], more than 10 µM. Still for that read-out and setting: as for `CCOc1ccc(Nc2nc(Nc3cccc(OCC(=O)NC)c3)ncc2F)cc1S(=O)(=O)O` [R950389, N4-(4-Ethoxy-3-hydroxysulfonylphenyl)-5-fluoro-N2-[3-(N-methylamino)carbonylmethyleneoxyphenyl]-2,4-pyrimidinediamine], the figure is more than 10 µM; as for “N4-(3,4-Ethylenedioxyphenyl)-5-fluoro-N2-[3-(2-N-methylaminoethyl)phenyl]-2,4-pyrimidinediamine Hydrogen Chloride Salt [R926509]”, more than 10 µM.
